Reference: patent US20120077852A1, “HYDROXYPYRIDINONES FOR THE LOCAL TREATMENT OF SKIN MICROCIRCULATORY DISORDERS” (priority 2002, published 2012)

How the values were obtained:
[1] = Kow distribution coefficient, partition between water and 1-octanol; assay type: physicochemical; details: distribution coefficient between water and 1-octanol of the hydroxypyridinone HCl addition salt, according Dubbin et al.
Text: A key feature is the hydro-lipophilic property, which basically correlate with its distribution coefficients (“Kow”).

[2] = Berdoukas et al, Lancet 1993; cited from earlier work
[3] = relative to deferoxamine; cited from earlier work
[4] = Kamiyama et al 1981; cited from earlier work

Structure (SMILES) | Kow [1] | cellular uptake versus deferoxamine [2] | partition coefficient, times that of deferoxamine [3] [times] | lipid peroxidation, hydroxyl radical production, free radical-mediated cell damage [4]
Cc1c(O)c(=O)ccn1C [Example 1, 1,2-dimethyl-3-hydroxy-4-pyridinone] | 0.17 | significantly higher than that of deferoxamine | 21 | dramatically decrease
CCc1c(O)c(=O)ccn1C [Example 11, 1-methyl-2-ethyl-3-hydroxy-4-pyridinone] | 0.63 |  |  | 
CCc1c(O)c(=O)ccn1CC [Example 12, 1,2-diethyl-3-hydroxy-4-pyridinone] | 1.78 |  |  | 
